# In article PMC3631187, “Structural and Functional Insights into Saccharomyces cerevisiae Riboflavin Biosynthesis Reductase RIB7” (PLoS ONE, 2013):
# T1: ScRIB7 (Saccharomyces cerevisiae, UniProt P33312, D83A)
# T1 construct: gene RIB7; recombinant in E. coli BL21(DE3), pGEX6p-1, GST tag removed with PreScission protease; homodimer, ~43 kDa by sedimentation
# T1 sequence (P33312 1-244 D83A): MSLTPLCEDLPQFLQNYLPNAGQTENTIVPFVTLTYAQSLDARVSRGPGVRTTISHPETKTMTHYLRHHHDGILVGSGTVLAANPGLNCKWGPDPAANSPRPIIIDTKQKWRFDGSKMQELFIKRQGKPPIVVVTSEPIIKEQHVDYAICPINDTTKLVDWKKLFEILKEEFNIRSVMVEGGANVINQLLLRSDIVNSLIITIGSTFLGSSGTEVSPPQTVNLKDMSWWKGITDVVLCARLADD
# T2: ScRIB7 (Saccharomyces cerevisiae, UniProt P33312)
# T2 construct: gene RIB7; recombinant in E. coli BL21(DE3), pGEX6p-1, GST tag removed with PreScission protease; homodimer, ~43 kDa by sedimentation
# T2 sequence (P33312 1-244): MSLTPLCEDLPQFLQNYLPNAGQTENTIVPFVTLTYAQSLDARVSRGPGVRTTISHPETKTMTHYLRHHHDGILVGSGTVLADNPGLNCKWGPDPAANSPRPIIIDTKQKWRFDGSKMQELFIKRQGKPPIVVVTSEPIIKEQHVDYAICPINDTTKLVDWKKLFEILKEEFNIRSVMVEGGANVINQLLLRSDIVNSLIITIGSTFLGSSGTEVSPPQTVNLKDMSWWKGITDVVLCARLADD
# T3: ScRIB7 (Saccharomyces cerevisiae, UniProt P33312, T79A)
# T3 construct: gene RIB7; recombinant in E. coli BL21(DE3), pGEX6p-1, GST tag removed with PreScission protease; homodimer, ~43 kDa by sedimentation
# T3 sequence (P33312 1-244 T79A): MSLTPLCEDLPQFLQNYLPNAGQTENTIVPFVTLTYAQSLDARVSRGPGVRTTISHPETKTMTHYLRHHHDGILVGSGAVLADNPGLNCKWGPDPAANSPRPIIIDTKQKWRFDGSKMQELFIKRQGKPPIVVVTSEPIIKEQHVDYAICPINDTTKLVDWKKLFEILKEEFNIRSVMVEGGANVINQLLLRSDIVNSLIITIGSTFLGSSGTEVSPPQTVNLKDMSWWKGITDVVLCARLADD
# Experiments:
# ScRIB7 [1] = biological target: T1, ScRIB7; experiment: isothermal titration calorimetry; format: binding; settings: 80 µM protein titrated with 800 µM NADPH in PBS
# ScRIB7 [2] = biological target: T2, ScRIB7; experiment: isothermal titration calorimetry; format: binding; settings: 80 µM protein titrated with 800 µM NADPH in PBS; crystal structure of the complex (2.35 Å) also solved
# ScRIB7 [3] = biological target: T3, ScRIB7; experiment: isothermal titration calorimetry; format: binding; settings: 80 µM protein titrated with 800 µM NADPH in PBS
# [4] = biological target: the molecule itself; experiment: SEC; gel filtration, data not shown; conditions of this run not told
Molecule,binding constant (ScRIB7 [1]),binding constant (ScRIB7 [2]),no interaction heat detected (ScRIB7 [3]),stoichiometry N [4]
NC(=O)C1=CN([C@@H]2O[C@H](COP(=O)(O)OP(=O)(O)OC[C@H]3O[C@@H](n4cnc5c(N)ncnc54)[C@H](OP(=O)(O)O)[C@@H]3O)[C@@H](O)[C@H]2O)C=CC1 [NADPH],The binding constant of the D83A mutant with NADPH was similar to that of the wild type,Interactions between enzymes and NADPH were detected by isothermal titration calorimetry using nano-ITC2g,no interaction heat was detected for the T79A mutant,–
"Saccharomyces cerevisiae RIB7 (enzyme, RIB7, riboflavin biosynthesis reductase of Saccharomyces cerevisiae; RIB7 gene amplified from genomic DNA and cloned BamHI/XhoI into pGEX6p-1; Wild type; A seleno-methionine derivative was used only for phasing; Residues left by the PreScission site after cleavage are not described; also called ScRIB7; riboflavin biosynthesis reductase RIB7; source: E. coli BL21 (DE3), purified …) MSLTPLCEDLPQFLQNYLPNAGQTENTIVPFVTLTYAQSLDARVSRGPGVRTTISHPETKTMTHYLRHHHDGILVGSGTVLADNPGLNCKWGPDPAANSPRPIIIDTKQKWRFDGSKMQELFIKRQGKPPIVVVTSEPIIKEQHVDYAICPINDTTKLVDWKKLFEILKEEFNIRSVMVEGGANVINQLLLRSDIVNSLIITIGSTFLGSSGTEVSPPQTVNLKDMSWWKGITDVVLCARLADD",–,–,–,2
